Source: US12043599B2, “Herbicidal compounds” (SYNGENTA PARTICIPATIONS AG, priority 2018, dated 2024)

Tests used:
Format in all cases: in vivo
Conditions in all cases: 250 g/h, evaluated after 13 days
Setaria faberi (SETFA) [1] = test: Post-emergence herbicidal glasshouse test, percentage damage
How it was run: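 Wheat, barley and Setaria faberi were sprayed post-emergence after 8 days' growth (24/16 °C, 14 h light, 65% humidity) with compound in acetone/water (50:50) containing 0.5% Tween 20, at the indicated rates. On wheat, compounds were also applied with cloquintocet-mexyl at 50 g/ha. Damage was scored after 13 days on a five-point scale (5=80-100% to 1=0-19%).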

[2] = system: Alopecurus myosuroides (ALOMY); test: as above
How it was run: (§1)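 Compounds applied at 250 g/h, formulated in 50:50 acetone/water plus 0.5% Tween 20, onto potted plants one day (pre-emergence) or 8 days (post-emergence) after sowing. Scoring of damage at day 13 used a five-point scale.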

Avena fatua (AVEFA) [3] = test: as above
How it was run: as §1

Lolium perenne (LOLPE) [4] = test: as above
How it was run: as §1

[5] = system: Alopecurus myosuroides (ALOMY); test: Pre-emergence herbicidal glasshouse test, percentage damage
How it was run: as §1

Setaria faberi (SETFA) [6] = test: as above
How it was run: as §1

Avena fatua (AVEFA) [7] = test: as above
How it was run: as §1

Lolium perenne (LOLPE) [8] = test: as above
How it was run: as §1

[9] = system: Echinochloa crus-galli (ECHCG); test: as above
How it was run: as §1

Row | Compound | SETFA POST percentage damage (five point scale) (Setaria faberi (SETFA) [1]) | ALOMY POST percentage damage (five point scale) [2] | AVEFA POST percentage damage (five point scale) (Avena fatua (AVEFA) [3]) | LOLPE POST percentage damage (five point scale) (Lolium perenne (LOLPE) [4]) | ALOMY PRE percentage damage (five point scale) [5] | SETFA PRE percentage damage (five point scale) (Setaria faberi (SETFA) [6]) | AVEFA PRE percentage damage (five point scale) (Avena fatua (AVEFA) [7]) | LOLPE PRE percentage damage (five point scale) (Lolium perenne (LOLPE) [8]) | ECHCG PRE percentage damage (five point scale) [9]
1 | CC#Cc1cc(C)c(C2C(=O)CC3(CCN(c4cncnc4)CC3)CC2=O)c(C)c1 [Compound A87] | 5 (5=80-100%) | 5 (5=80-100%) | 5 (5=80-100%) | 5 (5=80-100%) | 4 (4=60-79%) | 5 (5=80-100%) | 3 (3=40-59%) | 5 (5=80-100%) | 5 (5=80-100%)
2 | CC#Cc1cc(C)c(C2=C(OC(=O)OC)CC3(CCN(C(=O)c4ncccn4)CC3)CC2=O)c(C)c1 [Compound P22] | 5 (5=80-100%) | 5 (5=80-100%) | 5 (5=80-100%) | 5 (5=80-100%) | 5 (5=80-100%) | 5 (5=80-100%) | 5 (5=80-100%) | 5 (5=80-100%) | 5 (5=80-100%)
3 | CC#Cc1cc(C)c(C2C(=O)CC3(CCN(S(=O)(=O)Cc4ccon4)CC3)CC2=O)c(C)c1 [Compound A97] | 5 (5=80-100%) | 5 (5=80-100%) | 5 (5=80-100%) | 5 (5=80-100%) | 4 (4=60-79%) | 5 (5=80-100%) | 5 (5=80-100%) | 5 (5=80-100%) | 5 (5=80-100%)
4 | CC#Cc1cc(C)c(C2C(=O)CC3(CCN(C(=O)NC(=O)c4ccccn4)CC3)CC2=O)c(OC)c1 [Compound A79] | 5 (5=80-100%) | 5 (5=80-100%) | 5 (5=80-100%) | 5 (5=80-100%) | 4 (4=60-79%) | 4 (4=60-79%) | 5 (5=80-100%) | 5 (5=80-100%) | 4 (4=60-79%)
5 | CC#Cc1cc(C)c(C2=C(OC(=O)OC)CC3(CCN(S(=O)(=O)c4ccccn4)CC3)CC2=O)c(C)c1 [Compound P34] | 5 (5=80-100%) | 5 (5=80-100%) | 5 (5=80-100%) | 5 (5=80-100%) | 5 (5=80-100%) | 5 (5=80-100%) | 5 (5=80-100%) | 5 (5=80-100%) | 5 (5=80-100%)
6 | CC#Cc1cc(C)c(C2C(=O)CC3(CCN(S(=O)(=O)c4cn(C)nc4C(F)(F)F)CC3)CC2=O)c(C)c1 [Compound A40] | 5 (5=80-100%) | 5 (5=80-100%) | 5 (5=80-100%) | 5 (5=80-100%) | 5 (5=80-100%) | 5 (5=80-100%) | 5 (5=80-100%) | 5 (5=80-100%) | 5 (5=80-100%)
7 | CC#Cc1cc(C)c(C2=C(OC(=O)c3ncccn3)CC3(CCN(C(=O)c4ncccn4)CC3)CC2=O)c(C)c1 [Compound P23] | 5 (5=80-100%) | 5 (5=80-100%) | 5 (5=80-100%) | 5 (5=80-100%) | 5 (5=80-100%) | 5 (5=80-100%) | 4 (4=60-79%) | 5 (5=80-100%) | 5 (5=80-100%)
8 | CC#Cc1cc(C)c(C2C(=O)CC3(CCN(S(=O)(=O)c4ccccc4F)CC3)CC2=O)c(C)c1 [Compound A17] | 5 (5=80-100%) | 5 (5=80-100%) | 5 (5=80-100%) | 5 (5=80-100%) | 5 (5=80-100%) | 5 (5=80-100%) | 5 (5=80-100%) | 5 (5=80-100%) | 5 (5=80-100%)
9 | CC#Cc1cc(C)c(C2C(=O)CC3(CCN(S(=O)(=O)c4cccnc4)CC3)CC2=O)c(C)c1 [Compound A98] | 5 (5=80-100%) | 5 (5=80-100%) | 5 (5=80-100%) | 5 (5=80-100%) | 4 (4=60-79%) | 3 (3=40-59%) | 5 (5=80-100%) | 5 (5=80-100%) | 4 (4=60-79%)
10 | CC#Cc1cc(C)c(C2C(=O)CC3(CCN(C(=O)c4ccc(C#N)cn4)CC3)CC2=O)c(C)c1 [Compound A20] | 5 (5=80-100%) | 5 (5=80-100%) | 5 (5=80-100%) | 5 (5=80-100%) | 5 (5=80-100%) | 5 (5=80-100%) | 5 (5=80-100%) | 5 (5=80-100%) | 5 (5=80-100%)
11 | CC#Cc1cc(C)c(C2=C(OC(=O)OC)CC3(CCN(C(=O)C(C)(C)OC)CC3)CC2=O)c(C)c1 [Compound P26] | 5 (5=80-100%) | 5 (5=80-100%) | 5 (5=80-100%) | 5 (5=80-100%) | 5 (5=80-100%) | 5 (5=80-100%) | 5 (5=80-100%) | 5 (5=80-100%) | 5 (5=80-100%)
12 | CC#Cc1cc(C)c(C2C(=O)CC3(CCN(C(=O)c4cccnn4)CC3)CC2=O)c(C)c1 [Compound A21] | 5 (5=80-100%) | 5 (5=80-100%) | 5 (5=80-100%) | 5 (5=80-100%) | 5 (5=80-100%) | 3 (3=40-59%) | 5 (5=80-100%) | 5 (5=80-100%) | 2 (2=20-39%)
